Data reported in patent US20140275094A1, “METHOD FOR TREATING PULMONARY ARTERIAL HYPERTENSION IN A PATIENT NOT HAVING IDIOPATHIC PULMONARY FIBROSIS” (GILEAD SCIENCES, INC., priority 2012, published 2014).

Tests used:
ETA receptor = molecular target: T1, ETA receptor (Homo sapiens, UniProt P25101); conditions: read-out: affinity for the ETA receptor; cited from earlier work
T1 sequence (P25101 21-427): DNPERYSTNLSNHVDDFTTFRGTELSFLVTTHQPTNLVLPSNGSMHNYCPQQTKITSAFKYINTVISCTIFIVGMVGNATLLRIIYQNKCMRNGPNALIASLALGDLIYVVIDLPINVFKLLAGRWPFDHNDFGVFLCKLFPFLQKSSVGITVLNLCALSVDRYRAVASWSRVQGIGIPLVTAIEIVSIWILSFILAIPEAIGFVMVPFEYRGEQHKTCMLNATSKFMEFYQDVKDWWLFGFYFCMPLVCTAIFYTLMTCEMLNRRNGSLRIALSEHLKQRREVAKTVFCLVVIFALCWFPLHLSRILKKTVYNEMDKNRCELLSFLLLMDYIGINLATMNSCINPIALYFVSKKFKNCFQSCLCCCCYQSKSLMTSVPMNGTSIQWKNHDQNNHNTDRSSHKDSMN

[1] = tested on: patients with PAH (WHO Group 1); assay: ARIES-1 12-week placebo-controlled study; type: in vivo, human; conditions: for Mean change from baseline in 6-minute walk distance / Placebo-adjusted mean change from baseline in 6-minute walk distance / Placebo-adjusted median change from baseline in 6-minute walk distance: 12 weeks; for Mean change from baseline in 6-minute walk distance: mean ± SD
Protocol: Two 12-week, randomized, double-blind, placebo-controlled, multicenter studies were conducted in 393 patients with PAH (WHO Group 1). The two studies were identical in design except for the doses of ambrisentan and the geographic region of the investigational sites. ARIES-1 (Ambrisentan in Pulmonary Arterial Hypertension, Randomized, Double-Blind, Placebo-Controlled, Multicenter, Efficacy Studies) compared once-daily doses of 5 mg and 10 mg ambrisentan to placebo, while ARIES-2 compared once-daily doses of 2.5 mg and 5 mg ambrisentan to placebo. In both studies, ambrisentan or placebo was added to current therapy, which could have included a combination of anticoagulants, diuretics, calcium channel blockers, or digoxin, but not epoprostenol, treprostinil, iloprost, bosentan, or sildenafil. The primary study endpoint was 6-minute walk distance. In addition, clinical worsening, WHO functional class, dyspnea, and SF-36® Health Survey were assessed.
Patients had idiopathic or heritable PAH (64%) or PAH associated with connective tissue diseases (32%), HIV infection (3%), or anorexigen use (1%). There were no patients with PAH associated with congenital heart disease.
Patients had WHO functional class I (2%), II (38%), III (55%), or IV (5%) symptoms at baseline. The mean age of patients was 50 years, 79% of patients were female, and 77% were Caucasian.
Clinical Worsening: Time to clinical worsening of PAH was defined as the first occurrence of death, lung transplantation, hospitalization for PAH, atrial septostomy, study withdrawal due to the addition of other PAH therapeutic agents or study withdrawal due to early escape. Early escape was defined as meeting two or more of the following criteria: a 20% decrease in the 6-minute walk distance; an increase in WHO functional class; worsening right ventricular failure; rapidly progressing cardiogenic, hepatic, or renal failure; or refractory systolic hypotension.

[2] = molecular target: T2, breast cancer resistance protein (BCRP) (Homo sapiens, UniProt Q9UNQ0); assay: Inhibition of BCRP, transfected MDCKII cells; type: cell-based; conditions: human, transfected MDCKII cells
T2 construct: expressed in transfected cells; host or cells: MDCKII
T2 sequence (Q9UNQ0 1-655): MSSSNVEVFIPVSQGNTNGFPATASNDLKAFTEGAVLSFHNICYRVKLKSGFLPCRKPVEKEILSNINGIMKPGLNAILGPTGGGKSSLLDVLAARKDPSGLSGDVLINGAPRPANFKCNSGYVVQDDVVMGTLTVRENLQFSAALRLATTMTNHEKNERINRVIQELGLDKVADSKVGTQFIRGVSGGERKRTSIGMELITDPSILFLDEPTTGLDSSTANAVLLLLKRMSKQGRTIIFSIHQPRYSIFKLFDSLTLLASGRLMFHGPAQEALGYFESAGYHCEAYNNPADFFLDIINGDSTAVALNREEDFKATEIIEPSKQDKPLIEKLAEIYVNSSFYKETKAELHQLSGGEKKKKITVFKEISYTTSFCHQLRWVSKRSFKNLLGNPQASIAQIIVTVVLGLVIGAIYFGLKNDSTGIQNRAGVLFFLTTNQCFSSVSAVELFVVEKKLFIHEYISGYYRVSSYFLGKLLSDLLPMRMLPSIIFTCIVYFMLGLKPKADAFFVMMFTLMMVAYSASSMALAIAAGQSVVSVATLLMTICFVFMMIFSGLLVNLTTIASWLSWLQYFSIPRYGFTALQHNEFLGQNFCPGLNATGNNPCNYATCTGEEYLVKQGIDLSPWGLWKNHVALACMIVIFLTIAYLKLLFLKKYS
Protocol: Inhibition constants (IC50) were measured for human bile salt export pump (BSEP), sodium taurocholate cotransporting polypeptide (NTCP), multidrug resistance protein 2 (MRP2), P-glycoprotein (Pgp), breast cancer resistance protein (BCRP), organic anion-transporting polypeptide 1B1 (OATP1B1), and OATP1B3 in transfected cell-lines. Known inhibitors were used as positive controls.

[3] = ARIES-1, ambrisentan N = 134, 12-week treatment, intention-to-treat

Row | IC50 [2] [nM] | Compound | Ki (ETA receptor) [nM] | Mean change from baseline in 6-minute walk distance ([1]; ARIES-1, 5 mg once daily (N = 67)) [meters] | Placebo-adjusted mean change from baseline in 6-minute walk distance ([1]; ARIES-1, 5 mg) [meters] | Placebo-adjusted median change from baseline in 6-minute walk distance ([1]; ARIES-1, 5 mg) [meters] | Mean change from baseline in 6-minute walk distance ([1]; ARIES-1, 10 mg once daily (N = 67)) [meters] | Placebo-adjusted mean change from baseline in 6-minute walk distance ([1]; ARIES-1, 10 mg) [meters] | Placebo-adjusted median change from baseline in 6-minute walk distance ([1]; ARIES-1, 10 mg) [meters] | Clinical worsening, % [1, 3] [%] | Clinical worsening, no. [1, 3] | Time to clinical worsening, hazard ratio ([1]; ARIES-1, versus placebo)
1 | – | COC(c1ccccc1)(c1ccccc1)[C@H](Oc1nc(C)cc(C)n1)C(=O)O [Ambrisentan, (25)-2-[(4,6-dimethylpyrimidin-2-yl)oxy]-3-methoxy-3,3-diphenylpropanoic acid] | ~0.012 | 23 ± 83 | 31 | 27 | 44 ± 63 | 51 | 39 | 3 | 4 | 0.28
2 | > 100000 | COc1ccccc1Oc1c(NS(=O)(=O)c2ccc(C(C)(C)C)cc2)nc(-c2ncccn2)nc1OCCO [Bosentan] | – | – | – | – | – | – | – | – | – | –
